Test results taken from patent US20110124745A1, “Switchable Anionic Surfactants and Methods of Making and Using Same” (priority 2009, published 2011).

How the values were obtained:
Assay type in all cases: physicochemical
[1] = Solubility observations (aqueous solution, DMSO)
Source text: The following study confirmed that compounds (1A) and (1N) reversibly convert from the neutral form (1N) to the anionic form (1A) and back to the neutral form over and over again with substantially no loss of product. The conversion was verified visually since the neutral form was not soluble in aqueous solution and appeared as a white precipitate in colourless liquid while the anionic form was fully soluble in aqueous solution and appeared as a clear yellow liquid (see FIG. 2). In addition to visual examination, ^1H NMR studies that are described below confirmed the presence of the hydroxyl proton in the spectra of the neutral form.
Since n-octyl 4-hydroxy-3-nitrobenzoate (1N) and the […] salt of (1A) are soluble in DMSO and have some characteristic signals in the ^1H NMR spectrum, […] was used as a solvent to monitor the non-aqueous switchability by NMR spectroscopy.

[2] = Switching efficiency by 1H NMR, method B (DMF internal standard); details: relative to DMF standard set to 100
Source text: In both methods, to quantify the concentration of surfactant in solution, its ^1H NMR integration was compared to one of two internal standards of known concentration. In addition to the difference in which internal standard was used, the two methods can also be distinguished from each other on the basis of the timing of the addition of the internal standard. In method A, the standard remains in the solution during the process of switching. In method B, the switching is executed first and the DMF solution of known strength and quantity is added in to the solution.
In both methods, the surfactant was turned OFF with CO2 by positioning the needle that supplied the CO2 to the surfactant solution above the solution in such a way that the slow flow of CO2 was allowed to interact with the surfactant solution at the surface. The switching from ON to OFF required 5 min or less. Increasing the surface area, for example, by slightly tilting the vial, expedited the switching from ON to OFF. To turn the surfactant ON, the solution was stirred at 70° C. for 40 min as described above. After each ON cycle, 0.5 mL of D2O was added to the solution to compensate for the loss in the volume caused by evaporation.
The surfactant solution was prepared by combining 0.046 g of octyl 4-hydroxy-3-nitrobenzoate and 0.136 g of Na2CO3 in 16.0 mL of D2O. The resultant solution was homogenized by sonication for 2 min. 1.00 mL of this solution was transferred using a Hamilton syringe into thirteen different vials (1, 2, 2*, 3, 4, 5, 6, 7, 8, 9, 10, 11 and 12). Stirring bars were introduced in vials 2* through 12. […] The surfactant in vial 2 was turned OFF by the procedure described above. The solution in vial 2* was turned OFF with CO2 and was then left stirring uncapped at room temperature for 18 h. All the vials (excluding 2*) were tightly capped and left at room temperature for 18 h to confirm the stability of the systems in both the ON/OFF forms upon standing.
The standard solution of DMF was prepared by mixing 0.005 mL of DMF in 8.0 mL of D2O. […] The ^1H NMR spectra of all solutions were recorded. […]

[3] = Surface tension studies (tensiometer measurements)
Method: A stock solution of compound (1A) was prepared by combining 0.460 g (1.559 mmol) of octyl 4-hydroxy-3-nitrobenzoate (1N) and 1.36 g (12.83 mmol) of Na2CO3 in 160 mL of deionized H2O. The resultant solution was homogenized by sonication for 2 min using a sonicating machine (model […], available from Fisher Scientific, Ottawa, Canada). 10 mL of the homogeneous solution was transferred into each of thirteen vials (13×10 mL, vial numbers: 1, 2, 2*, 3, 4, 5, 6, 7, 8, 9, 10, 11 and 12). The levels of solution in all the vials were marked using a marker pen on the outside of the vials. A stir bar was introduced in vials 2* through 12.
The solutions in each vial were turned OFF and back ON according to Table 1. […] In vials 2 and 2*, the surfactant was turned OFF. In vial 2*, following the OFF-turning, the uncapped vial contents were stirred at room temperature for 48 h.
Vials (other than vial 2*) were left at room temperature for 18 h prior to surface tension measurements. Where necessary, water was added to the vials until the total volume matched the original marked levels.
The contents of vials with even numbers (OFF) were filtered by passing them through a Kimwipe™ plug in a pipette to obtain a clear solution.
Surface tension for all solutions was measured in triplicate. The three values of surface tension for each solution remained within ±1 dynes/cm indicating good reproducibility. The tensiometer (Surface Tensiomat 21, Model 14814, available from Fischer Scientific, Ottawa, Canada) was calibrated using deionized water. The initial value of 72 dynes/cm obtained for water was acceptable within experimental error.

SMILES	solubility in aqueous solution (visual) [1]	Proton integration at ~7.3 δ ([2]; D2O with Na2CO3, vial 1, control, never switched (ON))	Proton integration at ~7.3 δ ([2]; vial 2*: turned OFF with CO2, then stirred uncapped at room temperature)	Average surface tension ([3]; 1.559 mmol (1N) + 12.83 mmol Na2CO3 in 160 mL water, vial 1, control, never switched (ON)) [dynes/cm]	average value of the surface tension over the ON vials ([3]; ON form, vials 1, 3, 5, 7, 9, 11) [dynes/cm]	Average surface tension ([3]; vial 2*: turned OFF, then stirred uncapped at room temperature for 48 h) [dynes/cm]	solubility in DMSO [1]	Proton integration at ~7.3 δ ([2]; filtered solution, vials 2, 4, 6, 8, 10, 12: cycles of Table 1 ending OFF (CO2))	average value of the surface tension over the OFF vials ([3]; OFF form, vials 2, 4, 6, 8, 10, 12) [dynes/cm]
CCCCCCCCOC(=O)c1ccc(O)c([N+](=O)[O-])c1 [compound (1A), 2-nitro-4-(octyloxycarbonyl)phenolate]	fully soluble	46	45	35	34	35	–	–	–
CCCCCCCCOC(=O)c1ccc(O)c([N+](=O)[O-])c1 [compound (1N), octyl 4-hydroxy-3-nitrobenzoate]	–	–	–	–	–	–	soluble	0	61
